Results from ChEMBL document CHEMBL1201862, “PubChem BioAssay data set” (2004).
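Tested at 5 concentrations; 48 h exposure; 96-well plates; endpoints linearly interpolated, else capped at highest concentration. GI50 is the concentration that inhibits growth by half.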 Active and inactive are the calls of the source. Cut-off read from the data, not from the text of the source: active = GI50 up to about 1.1 µM and inactive = higher.

How the values were obtained:
Experiment in all cases: NCI-60 cell line screen, 48 h
NCI-H226 = tested on: NCI-H226
SF-539 = tested on: SF-539
HOP-62 = tested on: HOP-62
HCT-15 = tested on: HCT-15
UACC-62 = tested on: UACC-62
OVCAR-8 = tested on: OVCAR-8
RXF 393 = tested on: RXF 393
SK-MEL-2 = tested on: SK-MEL-2
IGROV-1 = tested on: IGROV-1
MCF7 = tested on: MCF7
EKVX = tested on: EKVX
A498 = tested on: A498
CAKI-1 = tested on: CAKI-1
SF-268 = tested on: SF-268
MOLT-4 = tested on: MOLT-4
PC-3 = tested on: PC-3
HT-29 = tested on: HT-29

Row | Compound | GI50 (NCI-H226) | GI50 (SF-539) | GI50 (HOP-62) | GI50 (HCT-15) | GI50 (UACC-62) | GI50 (OVCAR-8) | GI50 (RXF 393) | GI50 (SK-MEL-2) | GI50 (IGROV-1) | GI50 (MCF7) | GI50 (EKVX) | GI50 (A498) | GI50 (CAKI-1) | GI50 (SF-268) | GI50 (MOLT-4) | GI50 (PC-3) | GI50 (HT-29)
1 | Cc1ccc(N2CN3OC(=O)N(c4ccccc4)[C@@]3(c3ccccc3)C2)cc1 | 27 µM (inactive) | 29.4 µM (inactive) | 36.1 µM (inactive) | 23.2 µM | 21.2 µM (inactive) | 57 µM (inactive) | 25.1 µM (inactive) | 19.9 µM (inactive) | 33 µM (inactive) | 33.7 µM (inactive) | 45.7 µM (inactive) | 32.1 µM (inactive) | 33.3 µM (inactive) | 50.7 µM (inactive) | 35.1 µM (inactive) | 34.2 µM (inactive) | 25.1 µM (inactive)
2 | COC(=O)CCc1cc(O)c2c(c1)C(C(=O)OC)C(c1ccc(O)c(O)c1)O2 (configuration not stated) | 26.4 µM (inactive) | 9.64 µM (inactive) | 15.1 µM (inactive) | 4.36 µM | 8.15 µM (inactive) | 21.8 µM (inactive) | 18.7 µM (inactive) | 3.39 µM (inactive) | 12.1 µM (inactive) | 4.79 µM (inactive) | 34.4 µM (inactive) | > 44.9 µM (inactive) | 26.6 µM (inactive) | 16.3 µM (inactive) | 5.09 µM (inactive) | 19.6 µM (inactive) | 27.2 µM (inactive)
3 | CCN1CCCc2cc3c(C(F)(F)F)cc(=O)oc3cc21 | 64.6 µM (inactive) | > 100 µM (inactive) | > 100 µM (inactive) | > 100 µM | > 100 µM (inactive) | 91.6 µM (inactive) | 20.6 µM (inactive) | > 100 µM (inactive) | > 100 µM (inactive) | 56.2 µM (inactive) | 8.11 µM (inactive) | 45.9 µM (inactive) | 50.8 µM (inactive) | > 100 µM (inactive) | 42.4 µM (inactive) | 20.7 µM (inactive) | 48.8 µM (inactive)
4 | CC1=NN(C(=O)CC(=O)Nc2cccc(C)c2)C(=O)C1/N=N/c1ccc(S(=O)(=O)CCOS(=O)(=O)O)cc1 (configuration not stated) | 0.718 µM (active) | 2 µM (inactive) | 5.47 µM (inactive) | 0.319 µM | 1.81 µM (inactive) | 0.486 µM (active) | 1.62 µM (inactive) | 0.313 µM (active) | 0.63 µM (active) | 0.746 µM (active) | 32.2 µM (inactive) | 11.5 µM (inactive) | 0.546 µM (active) | 5.57 µM (inactive) | 0.406 µM (active) | 0.359 µM (active) | 0.767 µM (active)
5 | CCCC(=O)Oc1c2ccsc2c(OC(=O)CCC)c2ccsc12 | 4 µM (inactive) | 0.982 µM (active) | 0.536 µM (active) | 1.21 µM | 1.14 µM (inactive) | 0.407 µM (active) | 3.05 µM (inactive) | 1.09 µM (active) | 4.18 µM (inactive) | 2.23 µM (inactive) | 2.27 µM (inactive) | 4.6 µM (inactive) | 5.55 µM (inactive) | 3.13 µM (inactive) | 1.96 µM (inactive) | 0.836 µM (active) | 5.35 µM (inactive)
6 | CCC(C)C1NC(=O)C(NC(=O)C(CC(C)C)N(C)C(=O)[C@@H]2CC(O)CN2C(=O)[C@H](C)O)C(C)OC(=O)[C@H](Cc2ccc(OC)cc2)N(C)C(=O)[C@@H]2CCCN2C(=O)[C@H](CC(C)C)NC(=O)C(C)C(=O)[C@H](C(C)C)OC(=O)CC1O (some centres not stated) | 0.0641 µM (active) | 0.0319 µM (active) | 0.25 µM (active) | 2.13 µM | 0.0542 µM (active) | 0.406 µM (active) | 0.0638 µM (active) | 0.0621 µM (active) | 0.181 µM (active) | 0.0627 µM (active) | 0.0201 µM (active) | 0.759 µM (active) | 1.14 µM (inactive) | 0.153 µM (active) | 0.102 µM (active) | 0.252 µM (active) | 0.134 µM (active)
